Assay results published in US12377083B2 (WUHAN LL SCIENCE AND TECHNOLOGY DEVELOPMENT CO., LTD., priority 2019, dated 2025).

How the values were obtained:
Assay type in all cases: cell-based
[1] = biological target: hLPAR1 (human lysophosphatidic acid receptor 1) (Homo sapiens, UniProt Q92633); assay: FLIPR assay of intracellular calcium increase induced by activation of hLPAR1 expressed in CHO-K1 cells; settings: CHO-K1 cells expressing hLPAR1, agonist oleoyl-L-α-lysophosphatidic acid 1 μM; read-out: LPAR1 IC50
Protocol: The antagonist property of the compounds disclosed herein was determined using the FLIPR (fluorescence imaging plate reader) method, wherein the compounds are inhibitors for the intracellular calcium increase induced by activation of hLPAR1 (human lysophosphatidic acid receptor 1, accession No. NM_001401.4) expressed in CHO-K1 cells (Chinese hamster ovary cells K1, ATCC).
Cells at 250,000 cells/mL were seeded into a 96-well plate (25,000 cells/well) 18-24 h prior to the FLIPR experiment and then incubated overnight in a cell incubator. […] Each well was added with 75 μL of […] Fluo-4 AM fluorescent dye (Thermo, F14202) and then the cells were subjected to dye-loading incubation at 37° C. for 1.0 h. The 96-well plate was then washed once with buffer, added with a buffer containing a test compound or a vehicle at 50 μL per well and then incubated for 30 min at room temperature. […] An agonist (oleoyl-L-α-lysophosphatidic acid sodium salt (Sigma, L7260)) at a final concentration of 1 μM or a vehicle (ultrapure water) was then added at 50 μL/well, fluorescence values were measured for 2 min at 1-second intervals, and finally the output fluorescence counts were analyzed.

[2] = tested on: A2058 (human melanoma cells); assay: A2058 cell scratch (migration) assay with LPA; settings: 10 μM LPA, scratch area at 24 h
Protocol: The activity of the compounds disclosed herein at the cell level in vitro is evaluated by A2058 (human melanoma cells, Beina Bio, BNCC341099) cell scratch assay. The inhibitory activity of the compounds against LPAR1 can be reflected by inhibition of cell scratch healing.
After the cell confluence reached 80%, the cell culture plate was taken out and the original medium was discarded. Serum-free medium was then added, and the cells were starved overnight in an incubator (37° C., 5% CO2). The cell culture plate was then taken out, and cell scratches were made along the diameter of the wells using a 200 μL pipette tip. The cell culture plate was then added with 500 μL of serum-free medium and then shaken gently to wash away the residual cells on the scratched surface, and this was repeated twice. The medium was discarded and 500 μL of 1% FBS medium containing the compound was then added, and the mixture was incubated at 37° C. for 30 min. […] Olympus CKX53 was used to observe the scratches, and MShot image analysis system was used to take pictures and measure the scratch area at 0 h. The plate was incubated in the incubator under the conditions of 37° C. and 5% CO2. 24 h later, the scratches were observed again with Olympus CKX53, and MShot image analysis system was used to take pictures and measure the scratch area at 24 h. Cell migration inhibition rate was calculated according to the following formula: […]

[3] = In vitro cytotoxicity assay in HepG2 cells, CCK-8 method; settings: human
Protocol: In vitro cytotoxicity assay for the compounds disclosed herein was performed in HepG2 cells using the CCK-8 method. HepG2 cells (Beina Bio) in the logarithmic growth phase were collected, the concentration of cell suspension was adjusted, and then the cells were plated on a 96-well cell culture plate at 50,000 cells/well. The cells were then incubated overnight in a cell incubator (5% CO2, 37° C.), and after 80-90% cell confluence was achieved, test compounds or vehicle (DMSO) at various concentration gradients were added after medium change. The resulting mixture was incubated in the cell incubator (5% CO2, 37° C.) for 48 h. After the treatment, the medium in the plate was discarded. The plate was washed twice with PBS, added with CCK-8 working solution (Beyotime) at 100 μL per well, and then incubated at 37° C. for 1.5 h away from the light. Absorbance at OD450 nm was measured for each well on a microplate reader, and CC50 value of each compound was analyzed and calculated.

hLPAR1 (human lysophosphatidic acid receptor 1), sequence (Q92633 whole entry): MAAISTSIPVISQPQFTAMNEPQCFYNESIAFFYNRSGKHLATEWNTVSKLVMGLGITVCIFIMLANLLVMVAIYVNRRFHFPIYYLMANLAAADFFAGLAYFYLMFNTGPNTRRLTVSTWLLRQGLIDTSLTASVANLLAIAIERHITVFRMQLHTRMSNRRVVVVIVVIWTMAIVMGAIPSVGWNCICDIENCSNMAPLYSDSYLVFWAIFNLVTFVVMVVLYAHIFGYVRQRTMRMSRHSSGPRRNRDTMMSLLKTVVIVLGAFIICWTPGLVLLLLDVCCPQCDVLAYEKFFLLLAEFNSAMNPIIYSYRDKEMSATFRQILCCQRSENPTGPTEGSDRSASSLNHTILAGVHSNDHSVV

Cc1nc(-c2noc(C)c2COC(=O)N(C)C2CCCC2)ccc1O[C@H]1CCC[C@H](C(=O)O)C1 (racemic) [Compound 38]
IC50 [1]: < 0.05 µM
Cell migration inhibition rate (%) [2]: A (A: 50-70%)
CC50 at 48 h [3]: > 200 µM

CN(C(=O)OCc1ocnc1-c1ccc(O[C@H]2CCC[C@H](C(=O)O)C2)c(C(F)(F)F)n1)C1CCCC1 (racemic) [Compound 25]
IC50 [1]: 0.3 to 10 µM
Cell migration inhibition rate (%) [2]: B (B: 30-50%)
CC50 at 48 h [3]: > 200 µM

CN(C(=O)OCc1nocc1-c1ccc(O[C@H]2CCC[C@H](C(=O)O)C2)cc1)C1CCCC1 (racemic) [Compound 9, (+/−)-(1S,3S)-3-(4-(3-(((cyclopentyl(methyl)carbamoyl)oxy)methyl)isoxazol-4-yl)phenoxy)cyclohexane-1-carboxylic Acid]
IC50 [1]: 0.3 to 10 µM
Cell migration inhibition rate (%) [2]: C (C: 0-30%)
CC50 at 48 h [3]: > 200 µM

CN(C(=O)OCc1c(-c2ccc(O[C@H]3CCC[C@H](C(=O)O)C3)c(C(F)(F)F)n2)ncn1C)C1CCCC1 (racemic) [Compound 32]
IC50 [1]: 0.05 to 0.3 µM
Cell migration inhibition rate (%) [2]: B (B: 30-50%)
CC50 at 48 h [3]: > 200 µM

CN(Cc1ccccc1)C(=O)OCc1nc2cc(O[C@H]3CCC[C@H](C(=O)O)C3)ccc2n1C (racemic) [Compound 22]
IC50 [1]: 0.3 to 10 µM
Cell migration inhibition rate (%) [2]: C (C: 0-30%)
CC50 at 48 h [3]: > 200 µM

Cc1coc(-c2ccc(O[C@H]3CCC[C@H](C(=O)O)C3)c(C)n2)c1COC(=O)N(C)C1CCCC1 (racemic) [Compound 45]
IC50 [1]: < 0.05 µM
Cell migration inhibition rate (%) [2]: A (A: 50-70%)
CC50 at 48 h [3]: > 200 µM

Cc1n[nH]c(-c2ccc(O[C@H]3CCC[C@H](C(=O)O)C3)cc2)c1COC(=O)N(C)C1CCCC1 (racemic) [Compound 27]
IC50 [1]: < 0.05 µM
Cell migration inhibition rate (%) [2]: B (B: 30-50%)
CC50 at 48 h [3]: > 200 µM

Cc1c[nH]c(-c2ccc(O[C@H]3CCC[C@H](C(=O)O)C3)c(C)n2)c1COC(=O)N(C)C1CCCC1 (racemic) [Compound 44]
IC50 [1]: < 0.05 µM
Cell migration inhibition rate (%) [2]: B (B: 30-50%)
CC50 at 48 h [3]: > 200 µM

Cc1nc(-c2csc(C)c2COC(=O)N(C)C2CCCC2)ccc1O[C@H]1CCC[C@H](C(=O)O)C1 (racemic) [Compound 43]
IC50 [1]: < 0.05 µM
Cell migration inhibition rate (%) [2]: A (A: 50-70%)
CC50 at 48 h [3]: > 200 µM

Cc1nc(-c2c(C(F)(F)F)nn(C)c2COC(=O)N(C)C2CCCC2)ccc1O[C@H]1CCC[C@H](C(=O)O)C1 (racemic) [Compound 33]
IC50 [1]: < 0.05 µM
Cell migration inhibition rate (%) [2]: B (B: 30-50%)
CC50 at 48 h [3]: > 200 µM

Cc1csc(-c2ccc(O[C@H]3CCC[C@H](C(=O)O)C3)c(C)n2)c1COC(=O)N(C)C1CCCC1 (racemic) [Compound 46]
IC50 [1]: < 0.05 µM
Cell migration inhibition rate (%) [2]: A (A: 50-70%)
CC50 at 48 h [3]: > 200 µM

Cc1nc(-c2[nH]nc(C)c2COC(=O)N(C)C2CCCC2)ccc1O[C@H]1CCC[C@H](C(=O)O)C1 (racemic) [Compound 53]
IC50 [1]: < 0.05 µM
Cell migration inhibition rate (%) [2]: A (A: 50-70%)
CC50 at 48 h [3]: > 200 µM

Cc1nc(-c2c(F)nn(C)c2COC(=O)N(C)C2CCCC2)ccc1O[C@H]1CCC[C@H](C(=O)O)C1 [Compound 57]
IC50 [1]: < 0.05 µM
Cell migration inhibition rate (%) [2]: A (A: 50-70%)
CC50 at 48 h [3]: > 200 µM

CN(C(=O)OCc1c(-c2ccc(O[C@H]3CCC[C@H](C(=O)O)C3)c(Cl)n2)cnn1C)C1CCCC1 (racemic) [Compound 61, (+/−)-(1S,3S)-3-((2-chloro-6-(5-(((cyclopentyl(methyl)carbamoyl)oxy)methyl)-1-methyl-1H-pyrazol-4-yl)pyridin-3-yl)oxy)cyclohexane-1-carboxylic Acid]
IC50 [1]: < 0.05 µM
Cell migration inhibition rate (%) [2]: A (A: 50-70%)
CC50 at 48 h [3]: > 200 µM

Cc1nc(-c2c(C#N)nn(C)c2COC(=O)N(C)C2CCCC2)ccc1O[C@@H]1CCC[C@@H](C(=O)O)C1 (racemic) [Compound 58]
IC50 [1]: < 0.05 µM
Cell migration inhibition rate (%) [2]: A (A: 50-70%)
CC50 at 48 h [3]: > 200 µM

COc1nc(-c2cnn(C)c2COC(=O)N(C)C2CCCC2)ccc1O[C@H]1CCC[C@H](C(=O)O)C1 (racemic) [Compound 59, (+/−)-(1S,3S)-3-((6-(5-(((cyclopentyl(methyl)carbamoyl)oxy)methyl)-1-methyl-1H-pyrazol-4-yl)-2-methoxypyridin-3-yl)oxy)cyclohexane-1-carboxylic Acid]
IC50 [1]: < 0.05 µM
Cell migration inhibition rate (%) [2]: B (B: 30-50%)
CC50 at 48 h [3]: > 200 µM

CN(C(=O)OCc1c(-c2ccc(O[C@H]3CCC[C@H](C(=O)O)C3)cc2)ncn1C)C1CCCC1 (racemic) [Compound 12, (+/−)-(1S,3S)-3-(4-(5-(((cyclopentyl(methyl)carbamoyl)oxy)methyl)-1-methyl-1H-imidazol-4-yl)phenoxy)cyclohexane-1-carboxylate]
IC50 [1]: 0.3 to 10 µM
Cell migration inhibition rate (%) [2]: C (C: 0-30%)
CC50 at 48 h [3]: > 200 µM

Cc1snc(-c2ccc(O[C@H]3CCC[C@H](C(=O)O)C3)cc2)c1COC(=O)N(C)C1CCCC1 (racemic) [Compound 29, (+/−)-(1S,3S)-3-(4-(4-(((cyclopentyl(methyl)carbamoyl)oxy)methyl)-5-methylisothiazol-3-yl)phenoxy)cyclohexane-1-carboxylic Acid]
IC50 [1]: < 0.05 µM
Cell migration inhibition rate (%) [2]: B (B: 30-50%)
CC50 at 48 h [3]: > 200 µM

Cc1nc(-c2cnnc(COC(=O)N(C)C3CCCC3)c2)ccc1O[C@H]1CCC[C@H](C(=O)O)C1 (racemic) [Compound 47]
IC50 [1]: < 0.05 µM
Cell migration inhibition rate (%) [2]: B (B: 30-50%)
CC50 at 48 h [3]: > 200 µM

CN(C(=O)OCc1ccccc1-c1ccc(O[C@H]2CCC[C@H](C(=O)O)C2)cc1)C1CCCC1 (racemic) [Compound 21, (+/−)-(1S,3S)-3-((2′-(((cyclopentyl(methyl)carbamoyl)oxy)methyl)-[1,1′-biphenyl]-4-yl)oxy)cyclohexane-1-carboxylate]
IC50 [1]: 0.3 to 10 µM
Cell migration inhibition rate (%) [2]: C (C: 0-30%)
CC50 at 48 h [3]: > 200 µM

CN(Cc1ccccc1)C(=O)OCc1c(-c2ccc(O[C@H]3CCC[C@H](C(=O)O)C3)cc2)ncn1C (racemic) [Compound 24]
IC50 [1]: 0.3 to 10 µM
Cell migration inhibition rate (%) [2]: C (C: 0-30%)
CC50 at 48 h [3]: > 200 µM

CN(Cc1ccccc1)C(=O)OCc1c(-c2ccc(O[C@H]3CCC[C@H](C(=O)O)C3)cc2)cnn1C (racemic) [Compound 2, (+/−)-(1S,3S)-3-(4-(5-(((benzyl(methyl)carbamoyl)oxy)methyl)-1-methyl-1H-pyrazol-4-yl)phenoxy)cyclohexane-1-carboxylic Acid]
IC50 [1]: 0.3 to 10 µM
Cell migration inhibition rate (%) [2]: C (C: 0-30%)
CC50 at 48 h [3]: > 200 µM

Cc1nc(-c2cnnc(C)c2COC(=O)N(C)C2CCCC2)ccc1O[C@H]1CCC[C@H](C(=O)O)C1 (racemic) [Compound 52]
IC50 [1]: < 0.05 µM
Cell migration inhibition rate (%) [2]: B (B: 30-50%)
CC50 at 48 h [3]: > 200 µM

Cc1nc(-c2ccn(C)c2COC(=O)N(C)C2CCCC2)ccc1O[C@H]1CCC[C@H](C(=O)O)C1 (racemic) [Compound 55]
IC50 [1]: < 0.05 µM
Cell migration inhibition rate (%) [2]: A (A: 50-70%)
CC50 at 48 h [3]: > 200 µM

Cc1nc(-c2ncnc(C)c2COC(=O)N(C)C2CCCC2)ccc1O[C@H]1CCC[C@H](C(=O)O)C1 (racemic) [Compound 51]
IC50 [1]: < 0.05 µM
Cell migration inhibition rate (%) [2]: A (A: 50-70%)
CC50 at 48 h [3]: > 200 µM

Cc1nc(-c2snc(C)c2COC(=O)N(C)C2CCCC2)ccc1O[C@H]1CCC[C@H](C(=O)O)C1 (racemic) [Compound 40]
IC50 [1]: < 0.05 µM
Cell migration inhibition rate (%) [2]: A (A: 50-70%)
CC50 at 48 h [3]: > 200 µM

Cc1nc(-c2c[nH]c(C)c2COC(=O)N(C)C2CCCC2)ccc1O[C@H]1CCC[C@H](C(=O)O)C1 (racemic) [Compound 41]
IC50 [1]: < 0.05 µM
Cell migration inhibition rate (%) [2]: B (B: 30-50%)
CC50 at 48 h [3]: > 200 µM
